Experimental data published in ChEMBL document CHEMBL6127051, “Hydrazinecarboxamides: Comprehensive review of their anticancer, anticonvulsive, anti-inflammatory, enzyme inhibition, antioxidant and other activities” (Eur J Med Chem, 2024).
Values after ≈ are worked out from the molar mass of the structure shown. Each block holds one compound with its values, some of them ahead of it.

How the values were obtained:
[1] = Antioxidant activity assessed as DPPH radical scavenging activity at 10 ug/ml; assay type: functional; conditions: dose 10.0 µg/ml
A549 [2] = assay: Antiproliferative activity against human A549 cells assessed as reduction in cell viability by MTT assay; assay type: functional, cell-based
A549 [3] = assay: Antiproliferative activity against human A549 cells; assay type: functional, cell-based
MCF7 [4] = assay: Antiproliferative activity against human MCF7 cells assessed as reduction in cell viability incubated for 72 hrs by MTT assay; assay type: functional, cell-based; conditions: MCF7, 72 h
MCF7 [5] = assay: Cytotoxicity against human MCF7 cells assessed as reduction in cell growth; assay type: functional, cell-based
MCF7 [6] = assay: Anticancer activity against human MCF7 cells assessed as reduction in cell growth incubated for 24 hrs by MTT assay; assay type: functional, cell-based; conditions: MCF7, 24 h
NCI-H23 = assay: Antiproliferative activity against human NCI-H23 cells assessed as reduction in cell viability incubated for 72 hrs by MTT assay; assay type: functional, cell-based; conditions: NCI-H23, 72 h
A549 [7] = assay: Antiproliferative activity against human A549 cells assessed as reduction in cell viability incubated for 72 hrs by MTT assay; assay type: functional, cell-based; conditions: A549, 72 h
WI-38 = assay: Antiproliferative activity against human WI-38 cells assessed as reduction in cell viability; assay type: functional, cell-based
UO-31 = assay: Antiproliferative activity against human UO-31 cells assessed as inhibition of cell growth at 10 uM relative to control; assay type: functional; parameters: scale not given: the % may be the effect or the level left
Mus musculus [8] = assay: Anticonvulsant activity in po dosed scPTZ induced mouse model measured after 4 hrs; assay type: functional
PANC-1 = assay: Induction of apoptosis in human PANC-1 cells assessed as apoptotic cells at 2 uM incubated for 24 hrs by flow cytometric analysis relative to control; assay type: functional
[9] = Antiproliferative activity against human MRC5 cells assessed as reduction in cell growth; assay type: toxicity, cell-based
Cholinesterase = Cholinesterase (Equus caballus, UniProt P81908); assay: Inhibition of equine serum BChE using butyrylthiocholine iodide as substrate measured after 15 mins by Ellman's method
Chain of Cholinesterase (P81908 whole entry): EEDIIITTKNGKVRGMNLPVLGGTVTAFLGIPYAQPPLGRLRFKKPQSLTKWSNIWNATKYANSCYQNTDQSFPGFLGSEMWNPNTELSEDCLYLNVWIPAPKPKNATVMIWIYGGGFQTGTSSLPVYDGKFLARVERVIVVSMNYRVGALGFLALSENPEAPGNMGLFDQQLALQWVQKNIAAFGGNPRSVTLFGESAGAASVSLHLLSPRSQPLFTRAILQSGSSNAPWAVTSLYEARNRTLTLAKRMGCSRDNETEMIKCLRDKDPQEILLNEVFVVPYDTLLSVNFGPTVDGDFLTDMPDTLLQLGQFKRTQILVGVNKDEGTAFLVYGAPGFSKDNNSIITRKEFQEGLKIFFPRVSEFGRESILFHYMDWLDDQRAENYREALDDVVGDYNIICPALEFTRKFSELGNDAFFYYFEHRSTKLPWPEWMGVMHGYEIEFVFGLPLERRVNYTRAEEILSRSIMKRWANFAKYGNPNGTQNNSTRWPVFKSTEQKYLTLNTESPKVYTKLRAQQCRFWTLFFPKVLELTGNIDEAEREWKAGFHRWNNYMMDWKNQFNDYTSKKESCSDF

MCF7 [10] = assay: Anticancer activity against human MCF7 cells assessed as reduction in cell growth measured after 3 days by MTT assay; assay type: functional, cell-based; conditions: MCF7, 72 h
MCF7 [11] = assay: Antiproliferative activity against human MCF7 cells; assay type: functional, cell-based
MDA-MB-231 = assay: Antiproliferative activity against human MDA-MB-231 cells; assay type: functional, cell-based
MCF7 [12] = assay: Antiproliferative activity against human MCF7 cells assessed as reduction in cell viability measured for 72 hrs by MTT assay; assay type: functional, cell-based; conditions: MCF7, 72 h
PC-3 [13] = assay: Anticancer activity against human PC-3 cells assessed as inhibition of cell growth at 3 uM incubated for 48 hrs by MTT assay relative to control; assay type: functional; parameters: scale not given: the % may be the effect or the level left
A549 [14] = assay: Anticancer activity against human A549 cells assessed as inhibition of cell growth at 3 uM incubated for 48 hrs by MTT assay relative to control; assay type: functional; parameters: scale not given: the % may be the effect or the level left
MCF7 [15] = assay: Antiproliferative activity against human MCF7 cells by MTT assay; assay type: functional, cell-based
NCI-H460 = assay: Antiproliferative activity against human NCI-H460 cells by MTT assay; assay type: functional, cell-based
[16] = Inhibition of Escherichia coli beta-glucuronidase
Mus musculus [17] = assay: Anticonvulsant activity in ip dosed MES induced Kunming mouse seizure model; assay type: functional
HepG2 [18] = assay: Antiproliferative activity against human HepG2 cells assessed as reduction in cell viability incubated for 72 hrs by MTT assay; assay type: functional, cell-based; conditions: HepG2, 72 h
A549 [19] = assay: Antiproliferative activity against human A549 cells assessed as reduction in cell viability measured for 24 hrs by MTT assay; conditions: A549, 24 h
HepG2 [20] = assay: Antiproliferative activity against human HepG2 cells assessed as reduction in cell viability measured for 24 hrs by MTT assay; conditions: HepG2, 24 h
[21] = target: T1, Retinoic acid receptor RXR-alpha (Homo sapiens, UniProt P19793); assay: Antagonist activity at RXRalpha (unknown origin) by Alpha Screen assay
T1 sequence (P19793 whole entry): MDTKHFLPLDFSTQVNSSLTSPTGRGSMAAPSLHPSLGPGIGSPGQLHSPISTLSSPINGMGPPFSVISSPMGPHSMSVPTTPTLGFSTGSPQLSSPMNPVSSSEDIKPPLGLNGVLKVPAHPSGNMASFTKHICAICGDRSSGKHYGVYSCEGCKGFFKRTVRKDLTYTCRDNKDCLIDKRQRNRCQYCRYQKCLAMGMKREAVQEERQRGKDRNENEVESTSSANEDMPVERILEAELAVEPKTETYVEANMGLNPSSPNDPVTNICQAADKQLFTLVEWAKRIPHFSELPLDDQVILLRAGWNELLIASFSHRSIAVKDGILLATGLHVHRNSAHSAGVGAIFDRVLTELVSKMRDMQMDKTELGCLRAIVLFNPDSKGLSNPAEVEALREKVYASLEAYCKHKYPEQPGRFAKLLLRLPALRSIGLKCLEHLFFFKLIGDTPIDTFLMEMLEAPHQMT

PC-3 [22] = assay: Cytotoxicity against human PC-3 cells assessed as inhibition of cell growth; assay type: functional, cell-based
MCF7 [23] = assay: Cytotoxicity against human MCF7 cells assessed as inhibition of cell growth; assay type: functional, cell-based
PC-3 [24] = assay: Cytotoxicity against human PC-3 cells; assay type: functional, cell-based
[25] = Cytotoxicity against human HEK cells; assay type: toxicity, cell-based

SMILES: COc1cc(/C=C2\N=C(C)N(NC(=O)N3c4ccccc4C=Cc4ccccc43)C2=O)ccc1O
Activity [1]: 73.9%

IC50 (A549 [2]): 4 µM
IC50 (A549 [3]): 1.5 µM
IC50 (MCF7 [4]): 1 µM
SMILES: COc1cc(NC(C)CCCNC(=O)NNC(=O)NC(c2ccccc2)c2ccccc2)c2ncccc2c1 (stereo not given)

SMILES: O=C(NNC(=O)n1nnc2ccccc21)NC1CCCCC1
IC50 (MCF7 [5]): 79 µM

IC50 (A549 [2]): 4 µM
IC50 (A549 [3]): 1.5 µM
IC50 (MCF7 [4]): 1 µM
SMILES: COc1cc(NC(C)CCCNC(=O)NNC(=O)NC(=O)c2ccccc2)c2ncccc2c1 (stereo not given)

SMILES: COc1ccc(/C=C2\N=C(C)N(NC(=O)N3c4ccccc4C=Cc4ccccc43)C2=O)c(OC)c1
Activity [1]: 73.9%

IC50 (MCF7 [6]): 218 µM
SMILES: NNC(=O)Nc1nc2ccccc2o1

IC50 (NCI-H23): 1.49 µM
IC50 (A549 [7]): 1.5 µM
SMILES: COc1cccc(NC(=O)NNC(=O)c2oc3ccccc3c2CN2CCOCC2)c1
IC50 (WI-38): 12.9 µM

SMILES: CC1=N/C(=C\c2ccc(Cl)cc2)C(=O)N1NC(=O)N1c2ccccc2C=Cc2ccccc21
Activity [1]: 73.9%

SMILES: Cc1nc(NC(=O)Nc2ccccc2)sc1C(=O)NNC(=O)Nc1ccccc1
Activity (UO-31): 14.8%

SMILES: CC1(C)CC12NC(=O)N(Nc1ccc([N+](=O)[O-])cc1[N+](=O)[O-])C2=O (stereo not given)
ED50 (Mus musculus [8]): 126 mg/kg

SMILES: O=C(NNC(=O)n1nnc2ccccc21)NC1CCCC1
IC50 (MCF7 [5]): 79 µM

SMILES: COc1ccc(NC(=O)NNC(=O)c2oc3ccccc3c2CN2CCN(c3ccccc3)CC2)cn1
Activity (PANC-1): 29.93%
IC50 [9]: 74 µM

SMILES: CNC(=O)NNC(=O)c1ccc(Cl)cc1
IC50 (Cholinesterase): 22 µM

IC50 (MCF7 [10]): 0.03 µM
SMILES: COc1cc(NC(C)CCCNC(=O)NNC(=O)/C=C/c2ccc(OC)c(OC)c2)c2ncccc2c1 (stereo not given)

SMILES: O=C(NO)NNC(=O)n1nnc2ccccc21
IC50 (MCF7 [5]): 79 µM

IC50 (MCF7 [11]): 9.03 µM
IC50 (MDA-MB-231): 9.03 µM
IC50 (MCF7 [12]): 1.2 µM
SMILES: Cc1ccc(NC(=O)NNC(=O)c2cc3ccccc3[nH]2)cc1

SMILES: O=C(NNC1=NS(=O)(=O)c2ccccc2N1c1ccccc1)Nc1cc(C(F)(F)F)cc(C(F)(F)F)c1
Activity (PC-3 [13]): >=71%
Activity (A549 [14]): 99%

IC50 (MCF7 [15]): 8.89 µM
IC50 (NCI-H460): 8.89 µM
SMILES: Cc1nc(-c2cccnc2)ccc1C(=O)NNC(=O)Nc1ccc(F)cc1F

IC50 (MCF7 [10]): 0.03 µM
SMILES: COc1cc(NC(C)CCCNC(=O)NNC(=O)/C=C/c2ccc(Cl)cc2)c2ncccc2c1 (stereo not given)

IC50 [16]: 15.5 µM
SMILES: COc1ccc(NC(=O)NNC(=O)CCc2ccccc2OC)cc1

IC50 (MCF7 [10]): 0.03 µM
SMILES: COc1cc(NC(C)CCCNC(=O)NNC(=O)/C=C/c2ccccc2F)c2ncccc2c1 (stereo not given)

IC50 (MCF7 [10]): 0.03 µM
SMILES: COc1cc(NC(C)CCCNC(=O)NNC(=O)/C=C/c2cccc(C(F)(F)F)c2)c2ncccc2c1 (stereo not given)

SMILES: CC(C)N1C(=O)C(=O)N(NCC(=O)N(c2ccccc2)C2(C(N)=O)CCCC2)C1=O
ED50 (Mus musculus [17]): 34.4 mg/kg

IC50 (HepG2 [18]): 80.7 µM
SMILES: Cc1ccc(S(=O)(=O)NC(=O)NNC(=O)Cn2c(C(C)C)nc3ccccc32)cc1

IC50 (A549 [2]): 4 µM
IC50 (A549 [3]): 1.5 µM
IC50 (MCF7 [4]): 1 µM
SMILES: COc1cc(NC(C)CCCNC(=O)NNC(=O)NCCc2ccccc2)c2ncccc2c1 (stereo not given)

IC50 (A549 [19]): 8.39 µM
IC50 (HepG2 [20]): 2.17 µM
EC50 [21]: 1.05 µM
SMILES: O=C(NNC(=S)NCc1ccccc1)c1ccc(Nc2nccc(-c3ccccn3)n2)cc1

SMILES: Cc1ccc(N(C(=O)CNN2C(=O)C(=O)N(C(C)C)C2=O)C2(C(N)=O)CCCCC2)cc1
ED50 (Mus musculus [17]): 44.5 mg/kg

SMILES: CCc1nc2cc(Cl)c(Cl)cc2n1CC(=O)NNC(=O)Nc1ccccc1
IC50 (PC-3 [22]): 25.2 mg/L (≈ 62 µM)
IC50 (MCF7 [23]): 25.2 mg/L (≈ 62 µM)
IC50 (PC-3 [24]): 25.2 mg/L (≈ 62 µM)
IC50 [25]: 127 mg/L (≈ 312 µM)

SMILES: CCCCCCCCCCCCCNC(=O)NNC(=O)c1cccc(Br)c1
IC50 (Cholinesterase): 22 µM

SMILES: CC1=N/C(=C\c2ccc([N+](=O)[O-])cc2)C(=O)N1NC(=O)N1c2ccccc2C=Cc2ccccc21
Activity [1]: 73.9%

SMILES: COc1ccc(/C=C2\N=C(C)N(NC(=O)N3c4ccccc4C=Cc4ccccc43)C2=O)cc1
Activity [1]: 73.9%

IC50 (MCF7 [12]): 1.2 µM
SMILES: O=C(NNC(=O)c1cc2ccccc2[nH]1)NC1CCCCC1
